Test results from US20190105367A1, “ANTIMICROBIAL 4-OXOQUINOLIZINES” (Emergent Product Development Gaithersburg Inc., priority 2011, published 2019).

Tests used:
A. baumannii ATCC 19606 [1] = assay: MIC without and with sub-inhibitory polymyxin B (Example 4); assay type: cell-based, Acinetobacter baumannii; details: A. baumannii ATCC 19606
A. baumannii ATCC 19606 [2] = assay: Preliminary MBC without and with sub-inhibitory polymyxin B (Example 4); assay type: cell-based, Acinetobacter baumannii; details: for MBC: 2nd experiment
A. baumannii J2 = assay: MIC without and with sub-inhibitory polymyxin B (Example 4); assay type: cell-based, Acinetobacter baumannii; details: A. baumannii J2
[3] = system: Acinetobacter sp. (H064200250); assay: as above; assay type: cell-based
A. baumannii A329 = assay: as above; assay type: cell-based, Acinetobacter baumannii; details: A. baumannii A329
A. baumannii A387 [4] = assay: as above; assay type: cell-based, Acinetobacter baumannii; details: A. baumannii A387
A. baumannii A387 [5] = assay: Preliminary MBC without and with sub-inhibitory polymyxin B (Example 4); assay type: cell-based, Acinetobacter baumannii; details: for MBC: 2nd experiment
A. baumannii A390 [6] = assay: MIC without and with sub-inhibitory polymyxin B (Example 4); assay type: cell-based, Acinetobacter baumannii; details: A. baumannii A390
A. baumannii A14 [7] = assay: Preliminary MBC without and with sub-inhibitory polymyxin B (Example 4); assay type: cell-based, Acinetobacter baumannii; details: 2nd experiment
Method in brief: (§1)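 Incubation 18-20 h, 37° C. MBC = lowest conc. with ~90% fewer colonies than positive control (single/no colonies).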

A. baumannii A390 [8] = assay: as above; assay type: cell-based, Acinetobacter baumannii; details: for MBC: 2nd experiment
Method in brief: as §1

A. baumannii A473 [9] = assay: as above; assay type: cell-based, Acinetobacter baumannii; details: for MBC: 2nd experiment
Method in brief: as §1

A. baumannii NCTC 13301 [10] = assay: as above; assay type: cell-based, Acinetobacter baumannii; details: A. baumannii NCTC 13301, preliminary MBC; for MBC: 2nd experiment
Method in brief: as §1

A. baumannii A401 [11] = assay: MIC without and with sub-inhibitory polymyxin B (Example 4); assay type: cell-based, Acinetobacter baumannii; details: A baumannii A 401; for MIC: 2nd experiment
A. baumannii A401 [12] = assay: Preliminary MBC without and with sub-inhibitory polymyxin B (Example 4); assay type: cell-based, Acinetobacter baumannii; details: for MBC: 2nd experiment
A. baumannii A472 [13] = assay: MIC without and with sub-inhibitory polymyxin B (Example 4); assay type: cell-based, Acinetobacter baumannii; details: A. baumannii A472; for MIC: 2nd experiment
A. baumannii A472 [14] = assay: Preliminary MBC without and with sub-inhibitory polymyxin B (Example 4); assay type: cell-based, Acinetobacter baumannii; details: A. baumannii A472, preliminary MBC; for MBC: 2nd experiment
A. baumannii A473 [15] = assay: MIC without and with sub-inhibitory polymyxin B (Example 4); assay type: cell-based, Acinetobacter baumannii; details: A. baumannii A473
A. baumannii A489 = assay: as above; assay type: cell-based, Acinetobacter baumannii; details: A. baumannii A489
A. baumannii NCTC 13301 [16] = assay: as above; assay type: cell-based, Acinetobacter baumannii; details: A. baumannii NCTC 13301, 1st experiment
A. baumannii NCTC 13301 [17] = assay: as above; assay type: cell-based, Acinetobacter baumannii; details: A. baumannii NCTC 13301, 2nd experiment
A. baumannii A14 [18] = assay: as above; assay type: cell-based, Acinetobacter baumannii; details: 1st experiment
A. baumannii A14 [19] = assay: as above; assay type: cell-based, Acinetobacter baumannii; details: A. baumannii A14, 2nd experiment
A. baumannii A14 [20] = assay: Preliminary MBC without and with sub-inhibitory polymyxin B (Example 4); assay type: cell-based, Acinetobacter baumannii; details: A. baumannii A14, preliminary MBC, 1st experiment
[21] = +0.06 μg/ml polymyxin B, 1st experiment
[22] = ratio, PB 0.06 μg/ml, 1st experiment
[23] = without polymyxin B, 1st experiment
[24] = +[…] polymyxin B, 1st experiment
[25] = Acinetobacter spp. H064200250 (OXA51), +[…] PB, 2nd experiment

Polymyxin B [reference compound]
MIC (A. baumannii ATCC 19606 [1]; +0.06 μg/ml PB, 2nd experiment): 0.25 µg/mL | MIC without PB/MIC + PB (A. baumannii ATCC 19606 [1]; +0.06 μg/ml PB, 2nd experiment): 2 | MIC +0.06 μg/ml PB (A. baumannii ATCC 19606 [1]; [21]): 0.5 µg/mL | MIC without PB/MIC + PB (A. baumannii ATCC 19606 [1]; [22]): 1 | MIC (A. baumannii ATCC 19606 [1]; without PB, 2nd experiment): 0.5 µg/mL | MIC without PB (A. baumannii ATCC 19606 [1]; [23]): 0.5 µg/mL | MBC (A. baumannii ATCC 19606 [2]; A. baumannii ATCC 19606, +0.06 μg/ml PB): 0.25 µg/mL | MBC +0.06 μg/ml PB (A. baumannii ATCC 19606 [2]; A. baumannii ATCC 19606, +0.06 μg/ml polymyxin B, 1st experiment): 0.5 µg/mL | MBC (A. baumannii ATCC 19606 [2]; A. baumannii ATCC 19606, without PB): 0.5 µg/mL | MBC without PB (A. baumannii ATCC 19606 [2]; A. baumannii ATCC 19606, without polymyxin B, 1st experiment): 0.5 µg/mL | MIC (A. baumannii J2; +[…] PB, 2nd experiment): ≤0.125 µg/mL | MIC without PB/MIC + PB (A. baumannii J2; +[…] PB, 2nd experiment): ≥4 | MIC +[…] PB (A. baumannii J2; [24]): 0.5 µg/mL | MIC without PB/MIC + PB (A. baumannii J2; ratio, PB […], 1st experiment): 1 | MIC (A. baumannii J2; without PB, 2nd experiment): 0.5 µg/mL | MIC without PB (A. baumannii J2; [23]): 0.5 µg/mL | MIC [3, 25]: 0.25 µg/mL | MIC without PB/MIC + PB [3, 25]: 1 | MIC ([3]; Acinetobacter spp. H064200250 (OXA51), without PB, 2nd experiment): 0.25 µg/mL | MIC +[…] PB ([3]; Acinetobacter spp. H064200250, +[…] polymyxin B, 1st experiment): 0.25 µg/mL | MIC without PB/MIC + PB ([3]; Acinetobacter spp. H064200250, ratio, PB […], 1st experiment): 2 | MIC without PB ([3]; Acinetobacter spp. H064200250, without polymyxin B, 1st experiment): 0.5 µg/mL | MIC (A. baumannii A329; +0.06 μg/ml PB, 2nd experiment): 0.25 µg/mL | MIC without PB/MIC + PB (A. baumannii A329; +0.06 μg/ml PB, 2nd experiment): 1 | MIC (A. baumannii A329; without PB, 2nd experiment): 0.25 µg/mL | MIC without PB (A. baumannii A329; [23]): 0.5 µg/mL | MIC (A. baumannii A387 [4]; +0.06 μg/ml PB, 2nd experiment): ≤ 0.125 µg/mL | MIC without PB/MIC + PB (A. baumannii A387 [4]; +0.06 μg/ml PB, 2nd experiment): ≥2 | MIC read with alamar blue (A. baumannii A387 [4]; +0.06 μg/ml PB, value in parentheses, 2nd experiment): 0.25 µg/mL | MIC +0.06 μg/ml PB (A. baumannii A387 [4]; [21]): 0.25 µg/mL | MIC without PB/MIC + PB (A. baumannii A387 [4]; [22]): 1 | MIC (A. baumannii A387 [4]; without PB, 2nd experiment): 0.25 µg/mL | MIC without PB (A. baumannii A387 [4]; [23]): 0.25 µg/mL | MBC (A. baumannii A387 [5]; A. baumannii A387, +0.06 μg/ml PB): 0.25 µg/mL | MBC +0.06 μg/ml PB (A. baumannii A387 [5]; A. baumannii A387, +0.06 μg/ml polymyxin B, 1st experiment): 0.25 µg/mL | MBC (A. baumannii A387 [5]; A. baumannii A387, without PB): 0.25 µg/mL | MBC without PB (A. baumannii A387 [5]; A. baumannii A387, without polymyxin B, 1st experiment): 0.25 µg/mL | MIC (A. baumannii A390 [6]; +0.06 μg/ml PB, 2nd experiment): ≤0.125 µg/mL | MIC without PB/MIC + PB (A. baumannii A390 [6]; +0.06 μg/ml PB, 2nd experiment): ≥2 | MIC (A. baumannii A390 [6]; without PB, 2nd experiment): 0.25 µg/mL | MIC without PB (A. baumannii A390 [6]; [23]): 0.25 µg/mL | MBC (A. baumannii A14 [7]; A. baumannii A14, +0.06 μg/ml PB): 0.25 µg/mL | MBC (A. baumannii A14 [7]; A. baumannii A14, without PB): 0.25 µg/mL | MBC (A. baumannii A390 [8]; A. baumannii A390, +0.06 μg/ml PB): ≤0.125 µg/mL | MBC (A. baumannii A390 [8]; A. baumannii A390, without PB): 0.25 µg/mL | MBC without PB (A. baumannii A390 [8]; A. baumannii A390, without polymyxin B, 1st experiment): 0.25 µg/mL | MBC (A. baumannii A473 [9]; A. baumannii A473, +0.06 μg/ml PB): 0.25 µg/mL | MBC (A. baumannii A473 [9]; A. baumannii A473, without PB): 0.25 µg/mL | MBC without PB (A. baumannii A473 [9]; A. baumannii A473, without polymyxin B, 1st experiment): 1 µg/mL | MBC (A. baumannii NCTC 13301 [10]; +[…] PB): ≤0.125 µg/mL | MBC +[…] PB (A. baumannii NCTC 13301 [10]; [24]): 0.5 µg/mL | MBC (A. baumannii NCTC 13301 [10]; without PB): 0.25 µg/mL | MBC without PB (A. baumannii NCTC 13301 [10]; [23]): 0.5 µg/mL | MIC (A. baumannii A401 [11]; +0.06 μg/ml PB): 0.25 µg/mL | MIC +0.06 μg/ml PB (A. baumannii A401 [11]; [21]): 0.5 µg/mL | MIC without PB/MIC + PB (A. baumannii A401 [11]; [22]): 2 | MIC (A. baumannii A401 [11]; without PB): 0.5 µg/mL | MIC without PB (A. baumannii A401 [11]; [23]): 1 µg/mL | MBC (A. baumannii A401 [12]; A baumannii A 401, +0.06 μg/ml PB): 0.25 µg/mL | MBC +0.06 μg/ml PB (A. baumannii A401 [12]; A baumannii A 401, +0.06 μg/ml polymyxin B, 1st experiment): 0.5 µg/mL | MBC (A. baumannii A401 [12]; A baumannii A 401, without PB): 0.5 µg/mL | MBC without PB (A. baumannii A401 [12]; A baumannii A 401, without polymyxin B, 1st experiment): 1 µg/mL | MIC (A. baumannii A472 [13]; +[…] PB): 0.25 µg/mL | MIC +[…] PB (A. baumannii A472 [13]; [24]): ≤0.125 µg/mL | MIC without PB/MIC + PB (A. baumannii A472 [13]; ratio, PB […], 1st experiment): ≥4 | MIC (A. baumannii A472 [13]; without PB): 0.5 µg/mL | MIC without PB (A. baumannii A472 [13]; [23]): 0.5 µg/mL | MBC (A. baumannii A472 [14]; +[…] PB): 0.25 µg/mL | MBC +[…] PB (A. baumannii A472 [14]; [24]): ≤0.125 µg/mL | MBC (A. baumannii A472 [14]; without PB): 0.5 µg/mL | MBC without PB (A. baumannii A472 [14]; [23]): 0.5 µg/mL | MIC (A. baumannii A473 [15]; +0.06 μg/ml PB, 2nd experiment): 0.25 µg/mL | MIC without PB/MIC + PB (A. baumannii A473 [15]; +0.06 μg/ml PB, 2nd experiment): 1 | MIC (A. baumannii A473 [15]; without PB, 2nd experiment): 0.25 µg/mL | MIC read with alamar blue (A. baumannii A473 [15]; without PB, value in parentheses, 2nd experiment): 2 µg/mL | MIC without PB (A. baumannii A473 [15]; [23]): 1 µg/mL | MIC (A. baumannii A489; +[…] PB, 2nd experiment): 0.25 µg/mL | MIC without PB/MIC + PB (A. baumannii A489; +[…] PB, 2nd experiment): 2 | MIC +[…] PB (A. baumannii A489; [24]): 1 µg/mL | MIC without PB/MIC + PB (A. baumannii A489; ratio, PB […], 1st experiment): 2 | MIC (A. baumannii A489; without PB, 2nd experiment): 0.5 µg/mL | MIC without PB (A. baumannii A489; [23]): 2 µg/mL | MIC +[…] PB (A. baumannii NCTC 13301 [16]; +[…] polymyxin B): 1 µg/mL | MIC without PB/MIC + PB (A. baumannii NCTC 13301 [16]; ratio, PB […]): 0.5 | MIC without PB (A. baumannii NCTC 13301 [16]; without polymyxin B): 0.5 µg/mL | MIC (A. baumannii NCTC 13301 [17]; +[…] PB): ≤ 0.125 µg/mL | MIC without PB/MIC + PB (A. baumannii NCTC 13301 [17]; +[…] PB): ≥2 | MIC (A. baumannii NCTC 13301 [17]; +[…] PB, value in parentheses marked *, mark not explained): 0.25 µg/mL | MIC (A. baumannii NCTC 13301 [17]; without PB): 0.25 µg/mL | MIC +0.06 μg/ml PB (A. baumannii A14 [18]; +0.06 μg/ml polymyxin B): 0.5 µg/mL | MIC without PB/MIC + PB (A. baumannii A14 [18]; ratio, PB 0.06 μg/ml): 1 | MIC without PB (A. baumannii A14 [18]; without polymyxin B): 0.5 µg/mL | MIC (A. baumannii A14 [19]; +0.06 μg/ml PB): 0.25 µg/mL | MIC without PB/MIC + PB (A. baumannii A14 [19]; +0.06 μg/ml PB): 1 | MIC (A. baumannii A14 [19]; without PB): 0.25 µg/mL | MBC +0.06 μg/ml PB (A. baumannii A14 [20]; +0.06 μg/ml polymyxin B): 0.5 µg/mL | MBC without PB (A. baumannii A14 [20]; without polymyxin B): 0.5 µg/mL
